In patent publication US20090170858A1, “Methods and Compositions Containing Natural Folates for Protecting Against Radiation Damage” (priority 2005, published 2009):
“Also recorded” adds a separate entry of the source.

Assays:
[1] = tested on: Supercoiled plasmid DNA, PBR 322; experiment: UVA-mediated strand breaks in plasmid DNA, agarose gel electrophoresis; conditions: for strand-breaks in supercoiled plasmid DNA on UVA exposure / effect on the plasmid in the dark: 50 μM; for strand-breaks in supercoiled plasmid DNA on UVA exposure: UVA for 80 min, FIG. 3; for effect on the plasmid in the dark: incubated 80 min in the dark
Protocol: (§1) UVA and UVB irradiation were carried out under the following conditions. Samples were exposed to UV light at a distance of 30 cm from either a 15 W UVA lamp, Sylvania 350 BL, (lambda max=365 nm, 820 μW/cm2) or 15 W UVB lamp, UVP (lambda max=302 nm, 820 μW/cm2); both purchased from UVP, Inc., USA. The lamps were mounted in a UVP Model XX-15 lamp holder rested on a XX exposure stand.
(§2) To give a solution depth of about 3 mm, 0.5 ml reaction volumes were used in clear 24-well plates. To prevent evaporation during the UVA exposure, samples were covered with MICROAMP™ Optical Adhesive Film (ABI) allowing greater than 80% transmission above 330 nm. […] reactions were covered with a quartz window. All reactions were performed at ambient temperature in 10 mM potassium phosphate pH 7.41 (measured at 10 mM and 21° C.), equilibrated to air, in the presence of 100 μM diethylenetriaminepentaacetic acid in order to prevent the effect of adventitious redox-active metal ions, pre-empt the Fenton reaction and avoid hydroxyl radical-induced damage.
Strand breaks in DNA were detected as follows. Supercoiled plasmid DNA is converted into a nicked circular-form (relaxed) due to single-strand breaks, and subsequently into a linear form due to double-strands breaks. The three forms can be separated by agarose gel electrophoresis. Supercoiled DNA migrates further than the linear form, which in turn migrates further than the relaxed form.
A mixture of 0.1 μg of plasmid DNA, PBR 322, and folic acid, 5-MTHF or PCA in 10 mM potassium phosphate, pH 7.4, was incubated for 80 min under the above UVA-irradiation conditions for a total exposure of 4 J/cm^2. To partially maintain the concentration of 5-MTHF, a 0.25 mM solution was continuously added to the reaction mixture at 1.1 μl/min using a Harvard syringe pump with magnetic stirring.
A sample of 10 μl of the reaction mixture was then subjected to agarose gel electrophoresis after addition of 2 μl of 10× gel loading buffer. Agarose gel for electrophoresis was prepared by dissolving 0.9% agarose in 45 mM Tris-borate buffer (pH 8.3), containing 1 mM EDTA. Electrophoresis was run at 4 V/cm for 1 h. The gel was incubated with 1 μg/ml SYBR Safe stain, and the DNA bands were scanned using Fuji FLA-5000 phosphor-imaging system.

[2] = Rose Bengal photosensitization reaction, depletion of 5-MTHF (HPLC)
Protocol: Photochemical reactions with Rose Bengal were carried out as follows. Samples in septum-stoppered glass cuvettes were illuminated at a distance of 12 cm by light from a 40 W tungsten lamp passed through a Wratten #16 gelatin filter. Reactions were equilibrated with air or sparged with 100% or 1.8% O2 in argon, or extensively with 100% argon, and illumination was carried out at ambient temperature. Samples were taken through the septum by syringe and injected directly into the HPLC.
(§3) 5-MTHF photodegradation was assayed by HPLC using the following procedure. Samples were taken during light exposure at various times and analyzed by HPLC on a Luna phenyl-hexyl 5 μm (25×0.46 cm) column (Phenomenex) eluted at a flow rate of 1.5 ml/min with ammonium phosphate (20 mM in ammonium), pH 2.8/acetonitrile (17:1) with detection by UV absorbance using Waters 996, photodiode array spectrometer.

[3] = cited from earlier work
[4] = Protocol: as §1, §2
(§4) Reactions with photoexcited pterin-6-carboxylic acid or folic acid were carried out as follows. Samples were exposed in 24-well plates to UVA light in 0.5 ml reaction volumes containing 5-MTHF and folic acid or PCA in the absence or presence of sodium ascorbate in 10 mM potassium phosphate buffer pH 7.42. […]

[5] = Photodegradation on UVA, UVB or visible light exposure without photosensitizer (HPLC)
Protocol: as §1, §2, §3

[6] = Rate of reaction with singlet oxygen in water; type: physicochemical; conditions: inferred from competition with azide
[7] = Reaction with photoexcited pterin-6-carboxylic acid under UVA, depletion of 5-MTHF (HPLC)
Protocol: as §1, §2, §4

[8] = tested on: Rose Bengal-loaded THP-1 cells; conditions: viable Rose Bengal-loaded THP-1 cells; cited from earlier work

Nc1nc2ncc(C(=O)O)nc2c(=O)[nH]1 [PCA, pterin-6 carboxylic acid]
strand-breaks in supercoiled plasmid DNA on UVA exposure [1]: high percentage of strand-breaks | effect on the plasmid in the dark [1]: no effect

[N-]=[N+]=[N-].[Na+] [azide, Sodium azide]
protection against UVA mediated DNA-damage ([1]; 10 mM sodium azide, same conditions): full protection | decrease of the depletion rate of 5-MTHF ([2]; 0.5 mM azide, 100% O2, 10 μM Rose Bengal, FIG. 2B): about 50% | decrease of the initial rate of depletion of 5-MTHF ([2]; 5 mM azide, 100% O2, 10 μM Rose Bengal, FIG. 2B): about 80% | rate constant for the reaction with singlet oxygen in water [3]: 4.5e+08 M⁻¹ s⁻¹

CN1c2c(nc(N)[nH]c2=O)NC[C@@H]1CNc1ccc(C(=O)N[C@@H](CCC(=O)[O-])C(=O)O)cc1.CN1c2c(nc(N)[nH]c2=O)NC[C@@H]1CNc1ccc(C(=O)N[C@@H](CCC(=O)[O-])C(=O)O)cc1.[Ca+2] [5-MTHF, 5-Methyl-6S-tetrahydrofolic acid calcium salt]
UVA mediated DNA-damage in the presence of folic acid or PCA ([1]; 50 μM folic acid or PCA, UVA 80 min, 5-MTHF added continuously, 10 μM falling to 0.25 μM, calcium salt): inhibited | cleavage of plasmid DNA induced by the compound alone under UV ([1]; 5-MTHF alone, UV): does not induce cleavage of plasmid DNA | 5-MTHF concentration that prevented strand-breaks in plasmid DNA ([1]; in the presence of photoexcited PCA): below 10 μM | 5-MTHF concentration that prevented photodegradation of folic acid ([4]; UV exposure): below 10 μM | folic acid maintained until 5-MTHF decayed below this concentration ([4]; photolysis of folic acid in the presence of 5-MTHF, FIG. 1): below 1 μM | stability when illuminated alone ([5]; UVA, UVB or visible light, no photosensitizer, calcium salt): stable; also recorded: unaffected; also recorded: not photolyzed directly by UV | degradation (autooxidation) on exposure to UVA or UVB ([5]; in 1 hr, same extent as in the absence of light): < 5% | depletion of 5-MTHF by visible-light sensitized Rose Bengal ([2]; 25 μM 5-MTHF, pH 7.4, Rose Bengal, SOD, FIG. 2A): depleted | effectiveness in scavenging singlet oxygen relative to azide ([2]; competition reaction, high concentrations of O2, FIG. 2B): about 20 fold | rate of reaction with singlet oxygen [6]: nearly diffusion limited | time to complete depletion of 5-MTHF ([7]; initial 25 μM 5-MTHF, 50 μM PCA, UVA exposure): ≤ 15 min

O=C1O[C@H]([C@@H](O)CO)C([O-])=C1O.[Na+] [ascorbate, sodium ascorbate]
effect on the generation of protein-derived peroxides [8]: no effect | rate of loss of 5-MTHF in Rose-Bengal induced photosensitization ([2]; mM levels of sodium ascorbate, high oxygen, FIG. 2C): decreased | maintenance of 5-MTHF throughout the reaction ([7]; 1 mM ascorbate, 25 μM 5-MTHF, 10 μM PCA, UVA): substantially maintained | rate constant for the reaction with singlet oxygen in water [3]: 8.3e+06 M⁻¹ s⁻¹

Nc1nc2ncc(CNc3ccc(C(=O)N[C@@H](CCC(=O)O)C(=O)O)cc3)nc2c(=O)[nH]1 [folic acid]
strand-breaks in supercoiled plasmid DNA on UVA exposure [1]: high percentage of strand-breaks | effect on the plasmid in the dark [1]: no effect | photolysis products on exposure to UVA ([5]; UVA, HPLC, similar results with UVB): initially yields, p-aminobenzoylglutamate and 6-FP
